Results published in patent publication US10995068B2, “Synthetic sphingolipid-like molecules, drugs, methods of their synthesis and methods of treatment” (The Regents of the University of California, priority 2015, dated 2021).
Read-outs that look alike come from different tables or passages of the source.

Key:
[1] = tested on: DU145 prostate cancer cells; assay: Cell Titer Glo proliferation assay in DU145; assay type: cell-based, human; conditions: Mean ± SEM, n ≥ 3, read-out: IC50 values in prostate cancer cell lines, DU145
Method: (§1) Previously presented compounds 1-4 (FIG. 23), compounds 5-8 (FIG. 28), and control compound FTY720 (FIG. 2) were used to treat the well-established PC3 and DU145 prostate cancer lines (FIG. 29 and Table 1). A Cell Titer Glo assay was performed to measure proliferation of the cancer lines.
(§2) Cell culture studies: Sup-B15 cells are maintained at 2-3 million/mL in RPMI 1640 (Mediatech) supplemented with 10% fetal calf serum (FCS, Sigma-Aldrich), 10 mM Hepes (Mediatech), 55 μM β-mercaptoethanol (Sigma-Aldrich), 2 mM L-glutamine (Mediatech), and antibiotics. All adherent cells are maintained at 70-80% confluence. Cell are cultured in the following media: PC3 & A549, Ham's F12K (Corning Cell Gro) supplemented with 10% FCS and antibiotics; DU145 cells, MEM (Corning Cell Gro) supplemented with 10% FCS, 1 mM sodium pyruvate (Mediatech), and antibiotics; SW620 & MDA-MB-231, DMEM (Corning Cell Gro) with 10% FCS, 1 mM sodium pyruvate (Mediatech), and antibiotics; Panc-1 cells, DMEM (Corning Cell Gro) supplemented with 10% FCS and antibiotics. All of the above cell lines are available from the ATCC.
(§3) Viability assays: Cell Titer Glo assays (Cell Titer Glo Luminescent Cell Viability Assay kit, cat #G7571, Promega Corporation) are performed in clear bottom 96-well black cell culture plates (cat #655090, Greiner Bio-One, NC, USA). After plating at 1,000 cells/well in volume of 100 μl, cells are left undisturbed for at least 24 h before drug addition. After 72 h, cells are prepared for analysis by adding 10 μl of 0.1% Triton-X100 in PBS with shaking for 1 min at room temperature (RT). Cell Titer-Glo cell lysis reagent (20 μl) is then added followed by 1 min of shaking and a 10 min incubation in the dark at RT. Luminescence is detected using an IVIS imaging system (IVIS Lumina II, Perkin Elmer, USA). […] IC50s are determined using GraphPad Prism (GraphPad Software, Inc, La Jolla, Calif.). SupB-15 viability was determined by flow cytometry. Cell Titer Glo assays were performed with the other cell lines.

[2] = tested on: PC3 prostate cancer cells; assay: Cell Titer Glo proliferation assay in PC3; assay type: cell-based, human; conditions: Cell Titer Glo, 72 h, Mean ± SEM, n ≥ 3, read-out: IC50 values in prostate cancer cell lines, PC3
Method: as §1, §2, §3

[3] = tested on: PC3 prostate cancer cells; assay: Cell viability by vital dye exclusion and flow cytometry in PC3; assay type: cell-based, human; conditions: Homo sapiens; vital dye exclusion (DAPI) and flow cytometry, 72 h
Method: Thus, to determine whether analogues in accordance with embodiments of the invention are cytotoxic, studies were conducted using vital dye exclusion and flow cytometry (Table 2).
as §3

[4] = molecular target: T1, S1P receptor 5 (Homo sapiens, UniProt Q9H228); assay: S1P receptor activation in CHO cells, S1P5; assay type: cell-based; conditions: CHO cells over-expressing human S1P5
T1 construct: expressed in transfected cells
T1 sequence (Q9H228 whole entry): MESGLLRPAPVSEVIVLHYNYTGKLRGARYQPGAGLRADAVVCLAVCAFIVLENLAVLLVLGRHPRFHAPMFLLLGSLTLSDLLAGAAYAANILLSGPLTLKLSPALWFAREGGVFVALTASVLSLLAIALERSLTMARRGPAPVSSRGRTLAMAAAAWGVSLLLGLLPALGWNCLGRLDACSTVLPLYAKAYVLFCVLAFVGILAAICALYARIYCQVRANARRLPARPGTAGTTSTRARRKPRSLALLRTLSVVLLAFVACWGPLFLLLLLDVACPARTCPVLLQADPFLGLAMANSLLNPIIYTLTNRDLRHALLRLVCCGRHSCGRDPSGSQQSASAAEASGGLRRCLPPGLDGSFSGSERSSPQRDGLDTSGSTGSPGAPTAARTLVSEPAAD
Source text: (§4) Phosphorylation may have effects on S1P receptor activity that could cause bradycardia. Bradycardia, the dose-limiting toxicity that prevents the use of FTY720 in cancer patients, stems from FTY720-P's actions on S1P receptors 1 and 3. (Camm, J., et al. (2014) Am. Heart J. 168, 632-644; Cohen, J. A., Chun, J. (2011) Ann. Neurol. 69, 759-777; Sanna, M. G., et al. (2004) J. Biol. Chem. 279, 13839-13848; the disclosures of which are incorporated herein by reference). Phosphorylation by sphingosine kinase may make compounds competent to activate S1P receptors. FTY720, for example, when phosphorylated is known to activate S1P receptors 1 and 3. Because compound 5 could be phosphorylated, the activity of compound 5 and its phosphate 5-P (FIG. 28) on S1P receptors was evaluated (FIG. 32).
(§5) 51P1-5 activation: Chinese hamster ovary (CHO) cells stably over-expressing the different human 51P receptor subtypes are used. S1P1, S1P4 and S1P5 overexpressing CHO cells are cultured in medium containing alpha-MEM supplemented with 10% FBS, 50 μg/ml gentamycin and 0.5 mg/ml G418. S1P2 and S1P3 overexpressing CHO cells are cultured in RPMI containing 10% FBS, 50 μg/ml gentamycin and 0.5 mg/ml G418. Prior to stimulation, cells are rendered serum-free for 24 h. Stimulation is carried out for 10 min in serum-free DMEM containing 0.1 mg/ml of fatty-acid free BSA in the absence or presence of the various compounds or 51P. Protein lysates are prepared using a buffer containing (50 mM Tris pH 7.4, 150 mM NaCl, 10% glycerol, 1% Triton X-100, 2 mM EDTA, 2 mM EGTA, 40 mM β-glycerophosphate, 50 mM sodium fluoride, 10 mM sodium pyrophosphate, 2 mM dithiothreitol, 0.2 mM sodium orthovanadate). Cells are homogenized by one 5 sec burst in a MSE Ultrasonic Disintegrator, centrifuged and taken for protein determination. Equal amounts of protein are separated by SDS-PAGE (10% polyacrylamide gel), transferred to nitrocellulose membranes and subjected to Western blot analysis. Bands were stained using IRDye® secondary antibodies and visualized by the LICOR Odyssey® Fc Imaging system. Antibodies against phospho-Thr202/Tyr204-p42/p44-MAPK and phospho-Ser PKC substrate are from Cell Signaling, Frankfurt am Main, Germany. Polyclonal antisera against total p42 and total p44 were generated and characterized as previously described. (Huwiler, A.; Pfeilschifter, J. Br. J. Pharmacol. 1994, 113, 1455-1463; disclosure of which is incorporated herein by reference).

[5] = molecular target: T2, S1P receptor 3 (Homo sapiens, UniProt Q99500); assay: S1P receptor activation in CHO cells, S1P3; assay type: cell-based; conditions: CHO cells over-expressing human S1P3
T2 construct: expressed in transfected cells
T2 sequence (Q99500 whole entry): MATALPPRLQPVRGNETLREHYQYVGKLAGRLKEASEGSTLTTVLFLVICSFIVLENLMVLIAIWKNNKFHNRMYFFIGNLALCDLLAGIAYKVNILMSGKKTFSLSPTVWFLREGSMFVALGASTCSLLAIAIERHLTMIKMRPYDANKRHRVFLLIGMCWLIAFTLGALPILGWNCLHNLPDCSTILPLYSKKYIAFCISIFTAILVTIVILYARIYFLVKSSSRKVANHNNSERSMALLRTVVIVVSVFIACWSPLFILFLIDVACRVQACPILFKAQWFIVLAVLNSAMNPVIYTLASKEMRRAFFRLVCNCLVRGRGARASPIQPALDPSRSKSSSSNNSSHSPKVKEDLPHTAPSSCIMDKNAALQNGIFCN
Source text: as §4, §5

[6] = molecular target: T3, S1P receptor 2 (Homo sapiens, UniProt O95136); assay: S1P receptor activation in CHO cells, S1P2; assay type: cell-based; conditions: CHO cells over-expressing human S1P2
T3 construct: expressed in transfected cells
T3 sequence (O95136 whole entry): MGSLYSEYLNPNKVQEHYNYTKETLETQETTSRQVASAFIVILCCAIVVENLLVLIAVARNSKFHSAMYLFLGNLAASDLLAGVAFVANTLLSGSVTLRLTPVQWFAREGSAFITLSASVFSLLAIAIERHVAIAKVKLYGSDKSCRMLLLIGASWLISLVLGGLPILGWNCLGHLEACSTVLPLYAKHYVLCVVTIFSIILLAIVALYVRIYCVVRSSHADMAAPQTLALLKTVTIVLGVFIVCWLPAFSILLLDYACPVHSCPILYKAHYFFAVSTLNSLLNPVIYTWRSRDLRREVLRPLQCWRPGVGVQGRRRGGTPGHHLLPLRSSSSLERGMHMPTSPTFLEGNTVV
Source text: as §4, §5

[7] = molecular target: T4, S1P receptor 4 (Homo sapiens, UniProt O95977); assay: S1P receptor activation in CHO cells, S1P4; assay type: cell-based; conditions: CHO cells over-expressing human S1P4
T4 construct: expressed in transfected cells
T4 sequence (O95977 1-384): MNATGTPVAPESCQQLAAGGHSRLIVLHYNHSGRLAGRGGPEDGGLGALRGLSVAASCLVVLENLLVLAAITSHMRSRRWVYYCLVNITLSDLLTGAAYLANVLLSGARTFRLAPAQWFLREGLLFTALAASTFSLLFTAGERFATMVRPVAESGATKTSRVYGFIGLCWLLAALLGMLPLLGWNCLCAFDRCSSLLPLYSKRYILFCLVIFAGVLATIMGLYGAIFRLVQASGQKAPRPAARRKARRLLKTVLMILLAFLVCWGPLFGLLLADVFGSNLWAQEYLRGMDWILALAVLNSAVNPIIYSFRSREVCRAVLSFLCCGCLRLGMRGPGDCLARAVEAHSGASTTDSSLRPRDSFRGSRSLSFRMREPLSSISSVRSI
Source text: as §4, §5

[8] = molecular target: T5, S1P receptor 1 (Homo sapiens, UniProt P21453); assay: S1P receptor activation in CHO cells, S1P1; assay type: cell-based; conditions: CHO cells over-expressing human S1P1, 10 min stimulation, Western blot
T5 construct: expressed in transfected cells
T5 sequence (P21453 whole entry): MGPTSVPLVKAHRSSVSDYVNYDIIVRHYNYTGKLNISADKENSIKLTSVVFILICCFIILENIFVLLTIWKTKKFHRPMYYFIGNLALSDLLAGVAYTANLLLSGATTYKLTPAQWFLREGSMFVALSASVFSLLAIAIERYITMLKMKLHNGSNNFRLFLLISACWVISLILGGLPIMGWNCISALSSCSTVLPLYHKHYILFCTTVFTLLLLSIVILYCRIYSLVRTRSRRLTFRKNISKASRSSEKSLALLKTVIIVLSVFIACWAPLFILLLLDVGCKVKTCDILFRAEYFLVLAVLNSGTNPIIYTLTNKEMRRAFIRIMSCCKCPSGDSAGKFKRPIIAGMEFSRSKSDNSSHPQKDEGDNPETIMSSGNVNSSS
Source text: as §4, §5

[9] = Lymphocyte sequestration in mice; assay type: in vivo, C57BL6 mice; conditions: 10 mg/kg intraperitoneally, blood after 12 h, compared to saline
Source text: (§6) In more exemplary embodiments, compounds 5 and 5-P were further examined for their ability to activate multiple S1P receptors in vivo. In particular, mouse heart rate and lymphocyte sequestration were examined. Mouse heart rate decreases causing bradycardia when S1P receptor 3 is activated while in humans this effect may be mediated by S1P receptor 1. In both mice and humans, lymphocytes are sequestered when the S1P receptor 1 is activated.
Lymphocyte sequestration: Female 8-24 week old C57BL6 mice are injected intraperitoneally with vehicle (0.9% saline or 20% acidified DMSO in 0.9% saline), 10 mg/kg FTY720, FTY720-phosphate, 5, or 5-P. After 12 h, blood is collected from the retro-orbital sinus under ketamine/xylazine anesthesia. 10 μL of whole blood is added to 190 μL of ACK red blood cell lysis buffer, incubated at room temperature for 3-5 minutes […], and the white blood cells recovered by centrifugation. Nucleated cells (Hoechst33342 positive) are counted using a hemocytometer to obtain the white blood cell count. Separately, 50 μL of whole blood is added to 1 mL of ACK red blood cell lysis buffer and incubated for 3-5 minutes at room temperature. Cells are washed with FACS wash (2% FCS in PBS with 0.05% NaN3) and red blood cell lysis repeated. Tubes are decanted and resuspended in 100 μL of FACS block (10% FCS in PBS with 0.05% NaN3) with directly conjugated antibodies recognizing B220, CD4, or CD8 (all from Biolegend, San Diego) for 30 min on ice. Cells are analyzed on a BD LSR II flow cytometer; the analysis is restricted to live cells (DAPI negative). These experiments are performed in accordance with all national or local guidelines and regulations and are approved by the UCI Institutional Animal Care and Use Committee.

[10] = Heart rate by ECG telemetry in mice; assay type: in vivo, C57BL/6 mice; conditions: single dose 10 mg/kg intraperitoneally, compared to saline vehicle
Source text: as §6
As shown in the telemetry readings detailed in FIG. 36, FTY720 (B) slowed heart rate comparison to compound 5 (C) and the control (A, saline). As shown in A, after administering saline, normal sinus rhythm with clearly discernible P waves, representing atrial depolarization, and QRS complexes, representing ventricular depolarization, at regular intervals is observed. The heart rate in this tracing was approximately 600 beats per minute (BPM). […] Finally, as shown in C, for exemplary embodiment compound 5, similar to the saline injection, normal sinus rhythm with well-defined and consistent P waves and QRS complexes were present following injection. The heart rate in this tracing was approximately 600 BPM, similar to saline.
Heart rate: C57BL/6 mice are surgically implanted with DSI TA-ETAF20 electrocardiographic telemetry devices (Data Sciences International, St. Paul, Minn.). The electrocardiographic data is collected and recorded using the PhysioTel telemetry system and Dataquest A.R.T 4.0 software (DSI). The telemetry device is implanted in the mouse's abdominal cavity with biopotential leads sutured in place in the chest wall. Buprenorphine (0.05 mg/kg) is administered every 12 h after surgery for pain management and enrofloxacin (3 mg/kg) is administered 2× per day for 7 days post-surgery as an antibiotic. Mice are permitted two weeks recovery after surgery before initiation of baseline telemetry recordings. Heart rate is calculated from ECG data taken in the freely moving, conscious mice. Mice are divided into two groups of 3 mice and treated intraperitoneally with a single dose of vehicle (0.9% saline or 20% acidified DMSO in 0.9% saline), 10 mg/kg FTY720, FTY720-Phosphate, 5, or 5-P and heart rate monitored continuously for 10 h. Mice are rested for two weeks at which point the experiment is repeated with the mice assigned to the alternate group. These experiments are performed in accordance with all national or local guidelines and regulations and were approved by the UCI Institutional Animal Care and Use Committee.

## CCCCCCCCc1ccc([C@H]2C[C@H](CO)N[C@H]2CO)cc1 [Compound 3, (2R,3R,5R)-2,5-Bis(hydroxymethyl)-3-(4-octylphenyl)pyrrolidinium chloride]
[1]; Homo sapiens, DU-145, 72 h
  IC50: 5.3 ± 0.2 µM
[2]; Homo sapiens
  IC50: 4.9 ± 0.6 µM
[3]
  IC50: 8.3 ± 0.2 µM

## CCCCCCCCc1ccc(C2CCNC2CO)cc1 (stereo not drawn) [Compound 8]
[1]; 72 h
  IC50: 5.4 ± 0.3 µM
[2]
  IC50: 6.5 ± 0.3 µM

## CCCCCCCCc1ccc([C@@H]2CC(=O)N[C@H]2CO)cc1 [Compound 9, (4S,5R)-5-(hydroxymethyl)-4-(4-octylphenyl)Pyrrolidin-2-one]
[1]; Homo sapiens, DU-145, 72 h
  IC50: > 20 µM
[2]; Homo sapiens
  IC50: > 20 µM

## CCCCCCCCc1ccc([C@H]2CC(=O)N[C@H]2CO)cc1 [Compound 10]
[1]; 72 h
  IC50: > 20 µM
[2]
  IC50: > 20 µM

## CCCCCCCCc1ccc([C@@H]2CC(=O)N[C@@H]2CO)cc1 [Compound 11]
[1]; 72 h
  IC50: > 20 µM
[2]
  IC50: > 20 µM

## CCCCCCCCc1ccc([C@@H]2CCN[C@H]2C)cc1.Cl [Compound 12]
[1]; 72 h
  IC50: 5 ± 0.1 µM
[2]
  IC50: 4.1 ± 0.4 µM
[4]
  activation of S1P receptor 5: not able to activate
[5]
  activation of S1P receptor 3: not able to activate
[6]
  activation of S1P receptor 2: not able to activate
[7]
  activation of S1P receptor 4: not able to activate
[8]
  activation of S1P receptor 1: not able to activate

## CCCCCCCCc1ccc([C@H]2CCN[C@@H]2C)cc1 [Compound 13]
[1]; 72 h
  IC50: 5.1 ± 0.6 µM
[2]
  IC50: 4.4 ± 0.6 µM

## CCCCCCCCCCCCC/C=C/[C@@H](O)[C@@H](N)COP(=O)(O)O [Compound S1P, sphingosine-1 phosphate, reference compound]
[4]
  activation of S1P receptor 5: activated
[5]
  activation of S1P receptor 3: activated
[6]
  activation of S1P receptor 2: activated
[7]
  activation of S1P receptor 4: activated
[8]
  activation of S1P receptor 1: activated

## CCCCCCCCc1ccc(CC[C@](N)(CO)COP(=O)(O)O)cc1 [FTY720-P, reference compound]
[9]
  lymphocyte sequestration: significantly sequestered lymphocytes
[10]
  decrease of heart rate: approximately 50%
